What was measured:
Assay type in all cases: functional
Staphylococcus aureus [1] = experiment: Antibacterial activity against methicillin-resistant Staphylococcus aureus ATCC BAA41 after 18 hrs by cation adjusted Mueller-Hinton broth microdilution method; details: ATCC BAA41, 18 h
Enterococcus faecium [2] = experiment: Antibacterial activity against antibiotic-susceptile Enterococcus faecium ATCC 49624 after 18 hrs by brain heart infusion broth microdilution method; details: ATCC 49624, 18 h
Escherichia coli [3] = experiment: Antibacterial activity against Escherichia coli ATCC 25922 after 18 hrs by Mueller-Hinton broth microdilution method; details: ATCC 25922, 18 h
Staphylococcus aureus [4] = experiment: Antibacterial activity against Staphylococcus aureus ATCC 29213 after 18 hrs by cation adjusted Mueller-Hinton broth microdilution method; details: ATCC 29213, 18 h
Pseudomonas aeruginosa = experiment: Antibacterial activity against multidrug-resistant Pseudomonas aeruginosa ATCC BAA2108 after 18 hrs by Mueller-Hinton broth microdilution method; details: ATCC BAA2108, 18 h
Escherichia coli [5] = experiment: Antibacterial activity against Escherichia coli ATCC […] expressing NDM-1 beta-lactamase after 18 hrs by Mueller-Hinton broth microdilution method
Bacillus subtilis = experiment: Antibacterial activity against Bacillus subtilis 168 after 18 hrs by Mueller-Hinton broth microdilution method; details: subsp. subtilis str. 168, 18 h
Klebsiella pneumoniae = experiment: Antibacterial activity against Klebsiella pneumoniae ATCC BAA2470 expressing NDM-1 beta-lactamase after 18 hrs by Mueller-Hinton broth microdilution method; details: ATCC BAA2470, 18 h
Enterococcus faecium [6] = experiment: Antibacterial activity against vancomycin-resistant Enterococcus faecium ATCC 700221 after 18 hrs by brain heart infusion broth microdilution method; details: ATCC 700221, 18 h

Row | SMILES | MIC (Staphylococcus aureus [1]) | MIC (Enterococcus faecium [2]) | MIC (Escherichia coli [3]) | MIC (Staphylococcus aureus [4]) | MIC (Pseudomonas aeruginosa) | MIC (Escherichia coli [5]) | MIC (Bacillus subtilis) | MIC (Klebsiella pneumoniae) | MIC (Enterococcus faecium [6])
1 | CCOc1ccc(Nc2c3ccccc3[n+](C)c3c2oc2ccccc23)cc1.[I-] | 4 µg/mL | 8 µg/mL | 8 µg/mL | 4 µg/mL | 64 µg/mL | 8 µg/mL | 4 µg/mL | 64 µg/mL | 8 µg/mL
2 | Cc1ccc(Nc2c3ccccc3[n+](C)c3c2[nH]c2ccccc23)cc1C.[I-] | 4 µg/mL | 8 µg/mL | 8 µg/mL | 4 µg/mL | > 64 µg/mL | 8 µg/mL | 4 µg/mL | > 64 µg/mL | 8 µg/mL
3 | CCOc1ccccc1Nc1c2ccccc2[n+](C)c2c1oc1ccccc12.[I-] | 6 µg/mL | 8 µg/mL | 12 µg/mL | 6 µg/mL | > 64 µg/mL | 12 µg/mL | 6 µg/mL | > 64 µg/mL | 8 µg/mL
4 | Cc1ccccc1Nc1c2ccccc2[n+](C)c2c1[nH]c1ccccc12.[I-] | 6 µg/mL | 8 µg/mL | 12 µg/mL | 6 µg/mL | > 64 µg/mL | 12 µg/mL | 6 µg/mL | > 64 µg/mL | 8 µg/mL
5 | C[n+]1c2ccccc2c(Nc2ccc(F)cc2F)c2[nH]c3ccccc3c21.[I-] | 4 µg/mL | 8 µg/mL | 8 µg/mL | 4 µg/mL | 64 µg/mL | 8 µg/mL | 4 µg/mL | 64 µg/mL | 8 µg/mL
6 | Cc1cc(C)cc(Nc2c3ccccc3[n+](C)c3c2[nH]c2ccccc23)c1.[I-] | 4 µg/mL | 8 µg/mL | 8 µg/mL | 4 µg/mL | > 64 µg/mL | 8 µg/mL | 4 µg/mL | > 64 µg/mL | 8 µg/mL
7 | C[n+]1c2ccccc2c(Nc2ccc(Cl)cc2)c2oc3ccccc3c21.[I-] | 6 µg/mL | 8 µg/mL | 12 µg/mL | 6 µg/mL | > 64 µg/mL | 12 µg/mL | 6 µg/mL | > 64 µg/mL | 8 µg/mL
8 | Cc1ccc(Nc2c3ccccc3[n+](C)c3c2oc2ccccc23)cc1F.[I-] | 6 µg/mL | 8 µg/mL | 12 µg/mL | 6 µg/mL | > 64 µg/mL | 12 µg/mL | 6 µg/mL | > 64 µg/mL | 8 µg/mL
9 | Cc1cc(F)ccc1Nc1c2ccccc2[n+](C)c2c1[nH]c1ccccc12.[I-] | 4 µg/mL | 8 µg/mL | 8 µg/mL | 4 µg/mL | 64 µg/mL | 8 µg/mL | 4 µg/mL | 64 µg/mL | 8 µg/mL
10 | CCOc1ccccc1Nc1c2ccccc2[n+](C)c2c1[nH]c1ccccc12.[I-] | 4 µg/mL | 6 µg/mL | 8 µg/mL | 4 µg/mL | 64 µg/mL | 8 µg/mL | 4 µg/mL | 64 µg/mL | 6 µg/mL
11 | C[n+]1c2ccccc2c(Nc2ccc(F)cc2F)c2oc3ccccc3c21.[I-] | 6 µg/mL | 8 µg/mL | 12 µg/mL | 6 µg/mL | > 64 µg/mL | 12 µg/mL | 6 µg/mL | > 64 µg/mL | 8 µg/mL
12 | Cc1cc(C)cc(Nc2c3ccccc3[n+](C)c3c2oc2ccccc23)c1.[I-] | 6 µg/mL | 8 µg/mL | 12 µg/mL | 6 µg/mL | > 64 µg/mL | 12 µg/mL | 6 µg/mL | > 64 µg/mL | 8 µg/mL
13 | C[n+]1c2ccccc2c(Nc2ccc(F)cc2)c2[nH]c3ccccc3c21.[I-] | 4 µg/mL | 8 µg/mL | 8 µg/mL | 4 µg/mL | 64 µg/mL | 8 µg/mL | 4 µg/mL | 64 µg/mL | 8 µg/mL
14 | Cc1ccc(Nc2c3ccccc3[n+](C)c3c2[nH]c2ccccc23)cc1.[I-] | 4 µg/mL | 6 µg/mL | 8 µg/mL | 4 µg/mL | 64 µg/mL | 8 µg/mL | 4 µg/mL | 64 µg/mL | 6 µg/mL
15 | C[n+]1c2ccccc2c(Nc2cccc(F)c2)c2oc3ccccc3c21.[I-] | 8 µg/mL | 12 µg/mL | 16 µg/mL | 8 µg/mL | > 64 µg/mL | 16 µg/mL | 8 µg/mL | > 64 µg/mL | 12 µg/mL
16 | C[n+]1c2ccccc2c(Nc2cccc(F)c2)c2[nH]c3ccccc3c21.[I-] | 6 µg/mL | 6 µg/mL | 12 µg/mL | 6 µg/mL | > 64 µg/mL | 12 µg/mL | 6 µg/mL | > 64 µg/mL | 6 µg/mL
17 | COc1ccccc1Nc1c2ccccc2[n+](C)c2c1oc1ccccc12.[I-] | 6 µg/mL | 8 µg/mL | 12 µg/mL | 6 µg/mL | > 64 µg/mL | 12 µg/mL | 6 µg/mL | > 64 µg/mL | 8 µg/mL
18 | CCc1ccc(Nc2c3ccccc3[n+](C)c3c2[nH]c2ccccc23)cc1.[I-] | 4 µg/mL | 6 µg/mL | 8 µg/mL | 4 µg/mL | 64 µg/mL | 8 µg/mL | 4 µg/mL | 64 µg/mL | 6 µg/mL
19 | C[n+]1c2ccccc2c(Nc2ccc(OC(F)(F)F)cc2)c2oc3ccccc3c21.[I-] | 4 µg/mL | 6 µg/mL | 8 µg/mL | 4 µg/mL | 64 µg/mL | 8 µg/mL | 4 µg/mL | 64 µg/mL | 6 µg/mL
20 | Cc1ccc(Nc2c3ccccc3[n+](C)c3c2[nH]c2ccccc23)cc1F.[I-] | 4 µg/mL | 8 µg/mL | 8 µg/mL | 4 µg/mL | 64 µg/mL | 8 µg/mL | 4 µg/mL | 64 µg/mL | 8 µg/mL
21 | C[n+]1c2ccccc2c(Nc2ccccc2)c2[nH]c3ccccc3c21.[I-] | 6 µg/mL | 8 µg/mL | 12 µg/mL | 6 µg/mL | > 64 µg/mL | 12 µg/mL | 6 µg/mL | > 64 µg/mL | 8 µg/mL
22 | COc1cccc(Nc2c3ccccc3[n+](C)c3c2[nH]c2ccccc23)c1.[I-] | 4 µg/mL | 8 µg/mL | 8 µg/mL | 4 µg/mL | > 64 µg/mL | 8 µg/mL | 4 µg/mL | > 64 µg/mL | 8 µg/mL
23 | C[n+]1c2ccccc2c(Nc2ccc(F)cc2)c2oc3ccccc3c21.[I-] | 6 µg/mL | 8 µg/mL | 12 µg/mL | 6 µg/mL | > 64 µg/mL | 12 µg/mL | 6 µg/mL | > 64 µg/mL | 8 µg/mL
24 | COc1ccc2cc3[n+](cc2c1OC)CCc1cc2c(cc1-3)OCO2.[Cl-] [BERBERINE CHLORIDE] | 192 µg/mL | > 192 µg/mL | > 192 µg/mL | 128 µg/mL | > 192 µg/mL | > 192 µg/mL | 128 µg/mL | > 192 µg/mL | > 192 µg/mL
